# Source: article PMC8086052 (Japanese Journal of Clinical Oncology, 2021)
# “Also recorded” adds a separate entry of the source. Where two headings read alike, the source gives them in different places.
# How the values were obtained:
# [1] = Plasma pharmacokinetics of niraparib and M1, cycle 1 days 1 and 21; type: in vivo, human; conditions: for AUC(0-t) / Cmax: oral; for Cmax / Cmin: geometric mean (SD)
# [2] = system: Japanese patients with advanced solid tumours; conditions: for Tolerability: 200 or 300 mg/day, Japanese patients with advanced solid tumours; for Patients with dose-limiting toxicity (DLT) in cycle 1: cohort 2, 300 mg/day (n = 6)
# [3] = system: metastatic or locally advanced solid tumours
# [4] = system: non-Japanese patients with advanced solid tumours; conditions: phase I studies in USA and Europe; cited from earlier work
# [5] = cancer patients; cited from earlier work
# [6] = system: platinum-sensitive recurrent ovarian cancer; conditions: cited from earlier work
# [7] = system: newly diagnosed advanced ovarian cancer; conditions: regardless of presence or absence of HRd; cited from earlier work
# [8] = cited from earlier work
# [9] = Niraparib 200 mg/day (n = 3), Any grade
# [10] = Niraparib 200 mg/day (n = 3), Grade 3/4
# [11] = Niraparib 300 mg/day (n = 6), Any grade
# [12] = Niraparib 300 mg/day (n = 6), Grade 3/4
# [13] = cohort 2, 300 mg/day, listed as niraparib
# [14] = cohort 2, 300 mg/day, three patients
structure (smiles),measurement,setting,value
"NC(=O)c1cccc2cn(-c3ccc([C@@H]4CCCNC4)cc3)nc12 [Niraparib, niraparib]",Dose dependence of mean Cmax and AUC0–24,"[1]; 200 and 300 mg/day, after multiple doses",increased dose-proportionally; also recorded: generally increased in a dose-proportional manner
same,AUC(0-t),"[1]; human, plasma, 200 mg/day",4930 ng·h/mL
same,Cmax,"[1]; human, plasma, 200 mg/day, plasma, Cycle 1 Day 1, Niraparib 200 mg/day (n = 3)",443 ng/mL
same,Cmax,"[1]; human, plasma, 200 mg/day, plasma, Cycle 1 Day 21, Niraparib 200 mg/day (n = 3)",729 ng/mL
same,AUC(0-t),"[1]; human, plasma, 300 mg/day",6270 ng·h/mL
same,Cmax,"[1]; human, plasma, 300 mg/day, plasma, Cycle 1 Day 1, Niraparib 300 mg/day (n = 6)",530 ng/mL
same,Cmax,"[1]; human, plasma, 300 mg/day, plasma, Cycle 1 Day 21, Niraparib 300 mg/day (n = 4)",1170 ng/mL
same,Tmax,"[1]; human, plasma, po, median tmax, single (cycle 1, day 1) and multiple (cycle 1, day 21) oral administration of niraparib 200 and 300 mg/day",3 to 4 h
same,Cmin,"[1]; plasma, Cycle 1 Day 21, Niraparib 200 mg/day (n = 3)",405.8 (267.8) ng/ml
same,Cmin,"[1]; plasma, Cycle 1 Day 21, Niraparib 300 mg/day (n = 4)",592.3 (138.2) ng/ml
same,Time to recovery from grade 4 thrombocytopenia / platelet count decreased,[2]; 300 mg/day cohort,~ 10 days
same,Patients with grade 4 thrombocytopenia or platelet count decreased,"[2]; 300 mg/day cohort, day 14 of cycle 1 and day 8 of cycle 2",two patients
same,"AEs of special interest (myelodysplastic syndrome, acute myeloid leukaemia, hypertensive crisis)",[2]; 200 and 300 mg/day,no AEs of special interest
same,Tolerability,[2],tolerable
same,Tolerability,[2]; listed as niraparib,generally safe and tolerable
same,Patients with events: ALT increased,[2]; [9],0 n (%)
same,Patients with events: AST increased,[2]; [9],0 n (%)
same,Patients with events: Anaemia,[2]; [9],0 n (%)
same,Patients with events: Any TEAE,[2]; [9],3 (100.0) n (%)
same,Patients with events: Blood ALP increased,[2]; [9],1 (33.3) n (%)
same,Patients with events: Blood creatinine increased,[2]; [9],1 (33.3) n (%)
same,Patients with events: Chest pain,[2]; [9],0 n (%)
same,Patients with events: Constipation,[2]; [9],1 (33.3) n (%)
same,Patients with events: Decreased appetite,[2]; [9],2 (66.7) n (%)
same,Patients with events: Diabetes mellitus,[2]; [9],0 n (%)
same,Patients with events: Diarrhoea,[2]; [9],0 n (%)
same,Patients with events: Fatigue,[2]; [9],2 (66.7) n (%)
same,Patients with events: Febrile neutropenia,[2]; [9],0 n (%)
same,Patients with events: GGT increased,[2]; [9],0 n (%)
same,Patients with events: Hypertension,[2]; [9],0 n (%)
same,Patients with events: Malaise,[2]; [9],1 (33.3) n (%)
same,Patients with events: Nausea,[2]; [9],1 (33.3) n (%)
same,Patients with events: Platelet count decreased,[2]; [9],1 (33.3) n (%)
same,Patients with events: Pyelonephritis,[2]; [9],0 n (%)
same,Patients with events: Thrombocytopenia,[2]; [9],0 n (%)
same,Patients with events: Vomiting,[2]; [9],2 (66.7) n (%)
same,Patients with events: White blood cell count decreased,[2]; [9],1 (33.3) n (%)
same,Patients with events: ALT increased,[2]; [10],0 n (%)
same,Patients with events: AST increased,[2]; [10],0 n (%)
same,Patients with events: Anaemia,[2]; [10],0 n (%)
same,Patients with events: Any TEAE,[2]; [10],1 (33.3) n (%)
same,Patients with events: Blood ALP increased,[2]; [10],1 (33.3) n (%)
same,Patients with events: Blood creatinine increased,[2]; [10],0 n (%)
same,Patients with events: Chest pain,[2]; [10],0 n (%)
same,Patients with events: Constipation,[2]; [10],0 n (%)
same,Patients with events: Decreased appetite,[2]; [10],0 n (%)
same,Patients with events: Diabetes mellitus,[2]; [10],0 n (%)
same,Patients with events: Diarrhoea,[2]; [10],0 n (%)
same,Patients with events: Fatigue,[2]; [10],0 n (%)
same,Patients with events: Febrile neutropenia,[2]; [10],0 n (%)
same,Patients with events: GGT increased,[2]; [10],0 n (%)
same,Patients with events: Hypertension,[2]; [10],0 n (%)
same,Patients with events: Malaise,[2]; [10],0 n (%)
same,Patients with events: Nausea,[2]; [10],0 n (%)
same,Patients with events: Platelet count decreased,[2]; [10],0 n (%)
same,Patients with events: Pyelonephritis,[2]; [10],0 n (%)
same,Patients with events: Thrombocytopenia,[2]; [10],0 n (%)
same,Patients with events: Vomiting,[2]; [10],0 n (%)
same,Patients with events: White blood cell count decreased,[2]; [10],1 (33.3) n (%)
same,Patients with events: ALT increased,[2]; [11],3 (50.0) n (%)
same,Patients with events: AST increased,[2]; [11],5 (83.3) n (%)
same,Patients with events: Anaemia,[2]; [11],3 (50.0) n (%)
same,Patients with events: Any TEAE,[2]; [11],6 (100.0) n (%)
same,Patients with events: Blood ALP increased,[2]; [11],4 (66.7) n (%)
same,Patients with events: Blood creatinine increased,[2]; [11],1 (16.7) n (%)
same,Patients with events: Chest pain,[2]; [11],2 (33.3) n (%)
same,Patients with events: Constipation,[2]; [11],2 (33.3) n (%)
same,Patients with events: Decreased appetite,[2]; [11],2 (33.3) n (%)
same,Patients with events: Diabetes mellitus,[2]; [11],1 (16.7) n (%)
same,Patients with events: Diarrhoea,[2]; [11],2 (33.3) n (%)
same,Patients with events: Fatigue,[2]; [11],1 (16.7) n (%)
same,Patients with events: Febrile neutropenia,[2]; [11],1 (16.7) n (%)
same,Patients with events: GGT increased,[2]; [11],3 (50.0) n (%)
same,Patients with events: Hypertension,[2]; [11],2 (33.3) n (%)
same,Patients with events: Malaise,[2]; [11],2 (33.3) n (%)
same,Patients with events: Nausea,[2]; [11],4 (66.7) n (%)
same,Patients with events: Platelet count decreased,[2]; [11],5 (83.3) n (%)
same,Patients with events: Pyelonephritis,[2]; [11],1 (16.7) n (%)
same,Patients with events: Thrombocytopenia,[2]; [11],1 (16.7) n (%)
same,Patients with events: Vomiting,[2]; [11],2 (33.3) n (%)
same,Patients with events: White blood cell count decreased,[2]; [11],1 (16.7) n (%)
same,Patients with events: ALT increased,[2]; [12],1 (16.7) n (%)
same,Patients with events: AST increased,[2]; [12],0 n (%)
same,Patients with events: Anaemia,[2]; [12],1 (16.7) n (%)
same,Patients with events: Any TEAE,[2]; [12],4 (66.7) n (%)
same,Patients with events: Blood ALP increased,[2]; [12],1 (16.7) n (%)
same,Patients with events: Blood creatinine increased,[2]; [12],0 n (%)
same,Patients with events: Chest pain,[2]; [12],0 n (%)
same,Patients with events: Constipation,[2]; [12],0 n (%)
same,Patients with events: Decreased appetite,[2]; [12],0 n (%)
same,Patients with events: Diabetes mellitus,[2]; [12],1 (16.7) n (%)
same,Patients with events: Diarrhoea,[2]; [12],0 n (%)
same,Patients with events: Fatigue,[2]; [12],0 n (%)
same,Patients with events: Febrile neutropenia,[2]; [12],1 (16.7) n (%)
same,Patients with events: GGT increased,[2]; [12],2 (33.3) n (%)
same,Patients with events: Hypertension,[2]; [12],0 n (%)
same,Patients with events: Malaise,[2]; [12],0 n (%)
same,Patients with events: Nausea,[2]; [12],0 n (%)
same,Patients with events: Platelet count decreased,[2]; [12],1 (16.7) n (%)
same,Patients with events: Pyelonephritis,[2]; [12],1 (16.7) n (%)
same,Patients with events: Thrombocytopenia,[2]; [12],1 (16.7) n (%)
same,Patients with events: Vomiting,[2]; [12],0 n (%)
same,Patients with events: White blood cell count decreased,[2]; [12],0 n (%)
same,Patients who discontinued treatment due to a TEAE,"[2]; cohort 1, 200 mg/day",no patient
same,Treatment-related TEAE: decreased appetite,"[2]; cohort 1, 200 mg/day",2 n
same,Patients with grade 3 treatment-related AEs,"[2]; cohort 1, 200 mg/day, blood alkaline phosphatase increased, white blood cell count decreased",one patient
same,Treatment-related TEAE: decreased appetite,"[2]; cohort 1, 200 mg/day, listed as niraparib",66.7%
same,Patients with grade ≥ 3 treatment-related AEs,"[2]; cohort 2, 300 mg/day",five patients
same,Patients with treatment-related grade 3 alanine aminotransferase increased,"[2]; cohort 2, 300 mg/day",one patient
same,Patients with treatment-related grade 3 anaemia,"[2]; cohort 2, 300 mg/day",two patients
same,Patients with treatment-related grade 3 febrile neutropenia,"[2]; cohort 2, 300 mg/day",one patient
same,Patients with treatment-related grade 3 gamma-glutamyl transferase increased,"[2]; cohort 2, 300 mg/day",one patient
same,Total number of grade ≥ 3 treatment-related AEs,"[2]; cohort 2, 300 mg/day",11
same,Treatment-related TEAE: aspartate aminotransferase increased,"[2]; cohort 2, 300 mg/day",5 n
same,Treatment-related TEAE: platelet count decreased,"[2]; cohort 2, 300 mg/day",5 n
same,Patients with dose-limiting toxicity (DLT) in cycle 1,[2],16.7%
same,Patients with dose-limiting toxicity (DLT) in cycle 1,[2]; grade 4 platelet count decreased,one patient
same,Treatment-related TEAE: aspartate aminotransferase increased,[2]; [13],83.3%
same,Treatment-related TEAE: platelet count decreased,[2]; [13],83.3%
same,Patients who discontinued treatment due to a TEAE,"[2]; cohort 2, 300 mg/day, malaise and gamma-glutamyl transferase increased",Two patients
same,Patients with a serious AE,"[2]; cohort 2, 300 mg/day, pyelonephritis, considered unrelated to niraparib",One patient
same,Treatment-related TEAE: alkaline phosphatase increased,[2]; [14],50.0%
same,Treatment-related TEAE: anaemia,[2]; [14],50.0%
same,Treatment-related TEAE: nausea,[2]; [14],50.0%
same,Patients with PD (progressive disease),[3]; both cohorts,four
same,Patients with partial response,"[3]; both in cohort 2 (300 mg/day), lung cancer and bile duct cancer",Two patients
same,Patients with PD (progressive disease),"[3]; cohort 1, 200 mg/day",All patients
same,maximum tolerated dose (MTD),[4],300 mg once daily
same,bioavailability after oral administration,[5],~ 73%
same,progression-free survival (PFS) compared with placebo,"[6]; maintenance treatment, regardless of germline BRCA mutation status",significantly prolonged
same,Patients requiring a dosage reduction to 200 mg once daily,[6]; starting dosage 300 mg once daily,~ 70%
same,progression-free survival (PFS) compared with placebo,[7],significantly prolonged
same,tumour exposure at steady state,[8],high
